US7759345B2, “Antitumoral derivatives of ET-743” (priority 2001, dated 2010)

Experiments:
Assay type in all cases: cell-based
A-549 = test: Inhibition of cells growth by colorimetric assay (SRB), A-549
Procedure, shortened: (§1)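 48 h SRB cytotoxicity assay; compound range 10–10^−8 μg/ml; seeding 5×10^3 cells/well, 18 h pre-attachment; OD 490 nm; GI, TGI, LC from triplicate means ± SD.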

HMEC1 = test: Inhibition of cells growth by colorimetric assay (SRB), HMEC1
Protocol: 2°.—Inhibition of Cells Growth by Colorimetric Assay.
A colorimetric type of assay, using sulforhodamine B (SRB) reaction has been adapted for a quantitative measurement of cell growth and viability [following the technique described by Philip Skehan, et al. (1990), New colorimetric cytotoxicity assay for anticancer drug screening, J. Natl. Cancer Inst., 82:1107-1112]
This form of the assay employs 96 well cell culture microplates of 9 mm diameter (Faircloth, 1988; Mosmann, 1983). Most of the cell lines are obtained from American Type Culture Collection (ATCC) derived from different human cancer types.
Cells are maintained in RPMI 1640 10% FBS, supplemented with 0.1 g/l penicillin and 0.1 g/l streptomycin sulfate and then incubated at 37° C., 5% CO2 and 98% humidity. For the experiments, cells were harvested from subconfluent cultures using trypsin and resuspended in fresh medium before plating.
Cells are seeded in 96 well microtiter plates, at 5×10^3 cells per well in aliquots of 195 μl medium, and they are allowed to attach to the plate surface by growing in drug free medium for 18 hours. Afterward, samples are added in aliquots of 5 μl in a ranging from 10 to 10^−8 μg/ml, dissolved in DMSO/EtOH/PBS (0.5:0.5:99). After 48 hours exposure, the antitumor effect are measured by the SRB methodology: cells are fixed by adding 50 μl of cold 50% (wt/vol) trichloroacetic acid (TCA) and incubating for 60 minutes at 4° C. Plates are washed with deionized water and dried. One hundred μl of SRB solution (0.4% wt/vol in 1% acetic acid) is added to each microtiter well and incubated for 10 minutes at room temperature. Unbound SRB is removed by washing with 1% acetic acid. Plates are air dried and bound stain is solubilized with Tris buffer. Optical densities are read on a automated spectrophotometric plate reader at a single wavelength of 490 nm.
The values for mean+/−SD of data from triplicate wells are calculated. Some parameters for cellular responses can be calculated: GI=growth inhibition, TGI=total growth inhibition (cytostatic effect) and LC=cell killing (cytotoxic effect).
Obtained results may predict the usefulness of a certain drug as a potential cancer treatment. For this technique, compounds which show GI50 values smaller than 10 μg/ml are selected to continue with further studies. GI50's data allow to predict that not only could a drug be cystostatic, but also it could have a potential in terms of tumor reduction.

HT-29 = test: Inhibition of cells growth by colorimetric assay (SRB), HT-29
Procedure, shortened: as §1

**Q.** What does the source list for `COc1cc2c(cc1OC(=O)OC(C)(C)C)CCN[C@]21CS[C@@H]2c3c(OC(C)=O)c(C)c4c(c3[C@H](COC1=O)N1C2[C@H]2c3c(cc(C)c(OC)c3OC(C)C)C[C@@H]([C@@H]1C#N)N2C)OCO4` (stereo partly drawn) [Compound 46]?
**A.** TGI A-549 (A-549; A-549, SRB, 48 hours exposure): 4.06E-07; GI50 (A-549; Homo sapiens, A549, 48 h, read-out: GI50 A-549): 179 nM; LC50 (concentration for 50% cell killing) (A-549; Homo sapiens, A549, 48 h, read-out: LC50 A-549, A-549, SRB, 48 hours exposure): 927 nM; TGI HMEC-1 (HMEC1; HMEC-1, SRB, 48 hours exposure): 5.18E-07; GI50 (HMEC1; Homo sapiens, HMEC-1, 48 h, read-out: GI50 HMEC-1): 152 nM; LC50 (HMEC1; Homo sapiens, HMEC-1, 48 h, read-out: LC50 HMEC-1, HMEC-1, SRB, 48 hours exposure): 11000 nM; TGI HT-29 (HT-29; HT-29, SRB, 48 hours exposure): 1.95E-06; GI50 (HT-29; Homo sapiens, HT-29, 48 h, read-out: GI50 HT-29): 398 nM; LC50 (concentration for 50% cell killing) (HT-29; Homo sapiens, HT-29, 48 h, read-out: LC50 HT-29, HT-29, SRB, 48 hours exposure): 11000 nM
